Reference: US20240025845A1, “METASTASIS-INHIBITING COMPOSITION OF NOVEL METHYLSULFONAMIDE DERIVATIVE COMPOUND” (KOREA RESEARCH INSTITUTE OF BIOSCIENCE AND BIOTECHNOLOGY, priority 2020, published 2024)

Columns and labels:
[1] = mouse liver metabolic stability assay; format: in vitro ADME
[2] = system: MDA-MB-231 cells; assay: Wound healing assay (cancer cell movement); format: cell-based, human
Description: (§1) In order to evaluate the cytotoxicity of the compound 1-1 according to the present invention, MTT assay was performed on a human breast cancer cell line (MDA-MB-231). Cells used in the experiment were all purchased from the American Type Culture Collection (ATCC). First, 1×10^5 MDA-MB-231 cells were divided into 200 vL of 5×10^3 cells in a 96-well plate using a DMEM medium added with 10% fetal bovine serum (FBS), […] and 50 U/ml penicillin while maintained at 37° C. under 5% CO2 air, and then incubated in a CO2 incubator for 24 hours. The purchased compound 1-1 of the present invention was treated at a concentration of 50 vM and incubated for 24 hours under the same culture conditions. After the incubation was completed, the culture medium was removed and 50 vL of 10 mg/mL MTT solution [3-(4,5-dimethylthiazol-2-yl)-2,5-diphenyltetrazolium bromide] (Sigma, St. Louis, MO, USA) was added per well and reacted at 37° C. for 4 hours. Subsequently, a supernatant was removed carefully so as to […] formazan crystals at the bottom, and 50 μL of dimethyl sulfoxide (DMSO) was added per well, and then shaken for 10 minutes, and an optical density (OD) at 590 nm was measured. […] The number of moved cells was quantified using an optical microscope (×100). […]

[3] = system: human breast cancer cell line (MDA-MB-231); assay: MTT cytotoxicity assay; format: cell-based
Description: as §1

[4] = system: MDA-MB-231 cell lines; assay: transwell Matrigel invasion chamber assay; format: cell-based, human; settings: MDA-MB-231, 10 and 20 vM, 20 hours, compared to control group
Description: as §1

[5] = system: angiogenesis; assay: chorioallantoic membrane (CAM) angiogenesis assay; format: in vivo; settings: fertilized egg, 4 μg
Description: In order to confirm whether angiogenesis was inhibited using the compound 1-46, which had high stability in vivo, among methylsulfonamide-based derivative compounds discovered as CSE1L inhibitors, a chorioallantoin membrane (CAM) was performed. First, the surface of the fertilized viable egg was wiped with 70% ethanol, incubated at 37° C. for 4 days, and 3 ml of albumin of the viable egg was extracted and then treated with the compound 1-46 at a concentration of 4 μg, and then it was observed whether angiogenesis was inhibited.

[6] = system: mouse breast cancer cell line 4T1; assay: orthotopic xenograft spontaneous metastasis mouse model (metastatic breast cancer); format: in vivo
Excerpt: In order to test a metastasis-inhibiting effect of the compound 1-1, which was a CSE1L inhibiting compound, in a mouse model, the metastasis-inhibiting effect was confirmed using an orthotopic xenograft spontaneous metastasis model. First, a method of examining metastasis of cancer formed by subcutaneous transplantation of mouse breast cancer cell line 4T1 (murine breast cancer cell) to other tissues was used. Female 6-week-old nude mice (BALB/c) were used. To make solid cancer, the mouse breast cancer cell line 4T1 (1×10^5 murine breast cancer cells) was transplanted into the 4th Mammary Fat Pad of the mouse, and from 5 days later, the compound 1-1 was treated at 10 mg/kg and 50 mg/kg every day for 3 weeks, respectively. […] In addition, after 25 days, the mice were autopsied to confirm the number of cancer cells metastasizing to the lung. […] Through the evaluation of anti-metastasis efficacy using the metastasis breast cancer model, the metastasis-inhibiting efficacy of the compound 1-1 was confirmed through selective regulation of the CSE1L function by binding to the target protein CSE1L. Accordingly, a novel derivative was synthesized in order to secure a substance showing better activity than these substances.

[7] = target: T1, CSE1L (Homo sapiens, UniProt P55060); assay: thermal shift assay (TSA) in cells, remaining CSE1L by Western blot; format: binding; settings: cells treated 10 vM, 24 hours; 42-60° C. for 5 minutes; vs DMSO
T1 construct: endogenous in cells
T1 sequence (P55060 1-971): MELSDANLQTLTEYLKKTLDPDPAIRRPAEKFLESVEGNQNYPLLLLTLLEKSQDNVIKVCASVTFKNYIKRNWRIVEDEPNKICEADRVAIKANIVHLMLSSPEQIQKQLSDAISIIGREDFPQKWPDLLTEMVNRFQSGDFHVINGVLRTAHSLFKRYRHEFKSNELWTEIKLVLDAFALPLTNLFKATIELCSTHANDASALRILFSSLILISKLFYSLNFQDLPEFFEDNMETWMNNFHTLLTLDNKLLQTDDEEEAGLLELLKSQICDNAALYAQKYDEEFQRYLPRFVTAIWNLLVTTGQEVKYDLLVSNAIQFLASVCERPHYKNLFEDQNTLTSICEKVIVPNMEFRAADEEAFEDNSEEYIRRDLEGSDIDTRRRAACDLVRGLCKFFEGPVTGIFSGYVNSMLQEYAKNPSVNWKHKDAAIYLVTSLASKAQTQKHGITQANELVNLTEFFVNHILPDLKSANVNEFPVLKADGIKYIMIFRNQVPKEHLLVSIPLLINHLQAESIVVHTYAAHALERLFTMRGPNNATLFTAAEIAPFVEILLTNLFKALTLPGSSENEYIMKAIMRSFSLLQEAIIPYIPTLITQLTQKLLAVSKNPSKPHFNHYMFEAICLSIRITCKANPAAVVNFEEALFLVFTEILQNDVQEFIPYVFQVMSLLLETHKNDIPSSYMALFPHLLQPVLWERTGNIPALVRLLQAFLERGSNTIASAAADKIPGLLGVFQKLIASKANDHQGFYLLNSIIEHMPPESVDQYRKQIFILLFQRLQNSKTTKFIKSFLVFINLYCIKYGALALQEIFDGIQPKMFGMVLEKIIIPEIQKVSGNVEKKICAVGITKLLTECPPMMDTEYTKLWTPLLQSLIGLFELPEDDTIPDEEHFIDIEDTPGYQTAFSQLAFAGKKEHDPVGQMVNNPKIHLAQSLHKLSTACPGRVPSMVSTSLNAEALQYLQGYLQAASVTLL
Excerpt: A CSE1L protein was known as nuclear exportin 2, a type of nuclear exportin that played a role in moving importin-α from the intra-nucleus to the cytoplasm as a cargo protein of nuclear transport (Solsbacher, J.; Maurer, P.; Bischoff, F. R.; Schlenstedt, G. Mol. Cell. Biol. 1998, 18, 6805.). In general, importin-α and Ran-GTP, which were cargo proteins, bound to exportin CSE1L in the nucleus and transported to the cytoplasm through nuclear pores, and the obtained CSE1L-bound Ran-GTP protein was rapidly hydrolyzed to Ran GDP to have the form of a cargo free state (a state in which importin-ax was not bound). Through this series of processes, the protein played a role of substance transport. As another function, the CSE1L protein was particularly abundant in cancer cells or tissues, and reported to have roles and functions in metastasis, such as carcinogenesis, cancer cell movement, and cancer cell invasion, but since the exact mechanism has not been reported yet, it was intended to predict the interaction with a novel metastasis-targeting protein (CSE1L) and develop effective substances using molecular modeling tools. Based on a binding site of the previously identified fusarisetin compound and the target protein (CSE1L), a virtual search was conducted using about 1.5 million compound libraries (commercial focused libraries) to predict combinable compounds. […]

[8] = system: cancer cells; assay: real-time cell movement with Holomonitor device; format: cell-based

| metabolic stability [1] [%] | SMILES | cell movement of cancer cell line (wound healing) ([2]; MDA-MB-231, compared to control group, concentration not given) | cytotoxicity (MTT) ([3]; MDA-MB-231, 10 to 100 vM) | number of invaded cancer cells [4] | angiogenesis inhibitory activity [5] | change in body weight (toxicity) ([6]; 10 mg/kg and 50 mg/kg every day for 3 weeks, compared to negative control group) | formation of cancer tissue in other organs (metastasis, bioluminescence) ([6]; 10 mg/kg and 50 mg/kg every day, vs control group) | volume and capacity of the tumors ([6]; 10 mg/kg and 50 mg/kg, drug treatment period (16 to 24 days)) | number of cancer cells metastasizing to the lung ([6]; autopsy after 25 days, compared to control group) | cell movement of cancer cell line (wound healing) ([2]; MDA-MB-231, 10 and 20 μM, 24 hours, compared to control group) | cytotoxicity (MTT) ([3]; MDA-MB-231, 50 vM, 24 hours) | amount of remaining CSE1L after heating (thermal stabilization) [7] | invasion and movement of cancer cells in real time [8] |
| --- | --- | --- | --- | --- | --- | --- | --- | --- | --- | --- | --- | --- | --- |
| 82.2 | NC(=O)CN(c1ccc(C(F)(F)F)cc1)S(=O)(=O)CC(F)(F)F [Compound 1-45] | – | – | – | – | – | – | – | – | – | – | – | – |
| 91.4 | NC(=O)CN(c1ccc(C(F)(F)F)cc1)S(=O)(=O)CCC(F)(F)F [Compound 1-46] | significantly reduced | no cytotoxicity | significantly reduced | excellent angiogenesis inhibitory activity | – | – | – | – | – | – | – | – |

| SMILES | metabolic stability [1] [%] | cell movement of cancer cell line (wound healing) ([2]; MDA-MB-231, compared to control group, concentration not given) | cytotoxicity (MTT) ([3]; MDA-MB-231, 10 to 100 vM) | number of invaded cancer cells [4] | angiogenesis inhibitory activity [5] | change in body weight (toxicity) ([6]; 10 mg/kg and 50 mg/kg every day for 3 weeks, compared to negative control group) | formation of cancer tissue in other organs (metastasis, bioluminescence) ([6]; 10 mg/kg and 50 mg/kg every day, vs control group) | volume and capacity of the tumors ([6]; 10 mg/kg and 50 mg/kg, drug treatment period (16 to 24 days)) | number of cancer cells metastasizing to the lung ([6]; autopsy after 25 days, compared to control group) | cell movement of cancer cell line (wound healing) ([2]; MDA-MB-231, 10 and 20 μM, 24 hours, compared to control group) | cytotoxicity (MTT) ([3]; MDA-MB-231, 50 vM, 24 hours) | amount of remaining CSE1L after heating (thermal stabilization) [7] | invasion and movement of cancer cells in real time [8] |
| --- | --- | --- | --- | --- | --- | --- | --- | --- | --- | --- | --- | --- | --- |
| CS(=O)(=O)N(CC(N)=O)c1ccc(C(Cl)(Cl)Cl)cc1 [Compound 1-1, 2-[N-methylsulfonyl-4-(trichloromethyl)anilino]acetamide] | 89.8 | – | – | significantly reduced | – | no change in body weight | showed a tendency to inhibit the formation of cancer tissue in other organs | not suppressed | significantly reduced | significantly reduced | no cytotoxicity | not reduced, but continuously maintained through structural stabilization | inhibited the invasion and movement of cancer cells |
